Data reported in US7951530B2, “Cyclic maltosylmaltose, cyclic maltosymaltose-forming enzyme, their preparation and uses” (Kabushiki Kaisha Hayashibara Seibutsu Kagaku Kenkyujo, priority 2003, dated 2011).

System: rat cecal contents
Assay: Test for fermentability by rat cecal contents
Type: in vitro ADME, Wister-rat
Description: According to the method of Oku et al., described in Journal of Nutritional Science and Vitaminology, vol. […] The cecal contents was collected under an anaerobic condition by killing a Wister-rat under anesthesia and suspended into 4-folds by volume of 0.1 M sodium bicarbonate aqueous solution, and then used for the test. CMM was added to the cecal contents by about 7% (w/w) of the weight of the cecal contents. The amounts of CMM at just after mixing and after 12 hours were determined by gas-chromatography. […] About 92% of CMM was not fermented and remained.

**Q.** What does the source list for `OC[C@H]1O[C@@H]2OC[C@H]3O[C@H](O[C@H]4[C@H](O)[C@@H](O)[C@@H](OC[C@H]5O[C@H](O[C@H]1[C@H](O)[C@H]2O)[C@H](O)[C@@H](O)[C@@H]5O)O[C@@H]4CO)[C@H](O)[C@@H](O)[C@@H]3O` [CMM, cyclo{>6)-α-D-glucopyranosyl-(1>4)-α-D-glucopyranosyl-(1>6)-α-D-glucopyranosyl-(1>4)-α-D-glucopyranosyl-(1>}]?
**A.** CMM not fermented and remained (after 12 hours): About 92%; concentration of CMM in the cecal contents (after 12 hours): 63.0 mg/g-cecal contents; concentration of CMM in the cecal contents (just after adding): 68.5 mg/g-cecal contents
